Earlier results in patent publication US11497742B1, “Pharmaceutical composition for the treatment of Covid-19 infection” (priority 2021, dated 2022).

Assays:
SARS-CoV-2 infection = conditions: interim analysis, 775 patients, oral
COVID-19 Mpro = COVID-19 Mpro (Severe acute respiratory syndrome coronavirus 2, UniProt P0DTD1); conditions: Hussein and Elkhair 2021

Molecule | reduced the risk of hospitalization or death (SARS-CoV-2 infection) | inhibition of COVID-19 Mpro (molecular docking, low binding energies) (COVID-19 Mpro)
CC(C)C(=O)OC[C@H]1O[C@@H](n2ccc(NO)nc2=O)[C@H](O)[C@@H]1O [Molnupiravir] | approximately 50% | 
Zn(CQ)Cl2H2O |  | potent inhibitors
Zn(HCQ)Cl2H2O |  | potent inhibitors
